Literature values as cited in US7276253B2, “Stable drug form for oral administration with benzimidazole derivatives as active ingredient and process for the preparation thereof” (AstraZeneca AB, priority 1996, dated 2007).

Conditions: aqueous solution at pH values under 4

half-life: less than ten
Structure (SMILES): COc1ccc2[nH]c([S+]([O-])Cc3ncc(C)c(OC)c3C)nc2c1 (stereo not shown) [Omeprazole, 5-methoxy-2(((4-methoxy-3,5-dimethyl-2-pyridyl)methyl)-sulfinyl)-1H-benzimidazole]
